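How tested: cells in 96-well plates exposed to compound for 48 hours at five concentrations. GI50 is the concentration that inhibits growth by half. Definition used: TGI = concentration required for complete inhibition of growth.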
Key:
Experiment in all cases: NCI-60 cell line screen, 48 h
KM12 colon = system: KM12 colon
SK-MEL-2 melanoma = system: SK-MEL-2 melanoma
A549 NSCLC = system: A549 NSCLC
UACC-257 melanoma = system: UACC-257 melanoma
NCI/ADR-RES ovarian = system: NCI/ADR-RES ovarian
NCI-H226 lung = system: NCI-H226 lung
HOP-62 NSCLC = system: HOP-62 NSCLC
RXF 393 renal = system: RXF 393 renal

Compound	GI50 (KM12 colon)	TGI (KM12 colon)	GI50 (SK-MEL-2 melanoma)	TGI (SK-MEL-2 melanoma)	GI50 (A549 NSCLC)	TGI (A549 NSCLC)	GI50 (UACC-257 melanoma)	TGI (UACC-257 melanoma)	GI50 (NCI/ADR-RES ovarian)	TGI (NCI/ADR-RES ovarian)	GI50 (NCI-H226 lung)	TGI (NCI-H226 lung)	GI50 (HOP-62 NSCLC)	TGI (HOP-62 NSCLC)	GI50 (RXF 393 renal)	TGI (RXF 393 renal)
O=C(Nc1cccc2[nH]c(C(F)(F)F)nc12)c1cc(Cl)ccc1Cl	3.37 µM	11.2 µM	2.79 µM	6.66 µM	3.45 µM	> 100 µM	3.34 µM	12.3 µM	2.87 µM	8.89 µM	3.39 µM	25.5 µM	2.34 µM	7.37 µM		
COc1cc(OC)c2sc(-c3ccc(-n4cncc4-c4ccc(OC)c(OC)c4)cc3)nc2c1	6.8 µM	> 100 µM	41.4 µM	> 100 µM	41.8 µM	> 100 µM	> 100 µM	> 100 µM	> 100 µM	> 100 µM	6.44 µM	> 100 µM	35.5 µM	> 100 µM	3550 nM	> 100 µM
C=CC(C)(C)n1cc(C2=C(O)C(=O)C(c3cn(C(C)(C)C=C)c4ccccc34)=C(O)C2=O)c2ccccc21		13.5 µM		4.22 µM		14.6 µM		9.73 µM		6.72 µM		14.3 µM		8.43 µM		3.87 µM
COc1ccc2c(c1)C(=O)/C(=C/c1cccc(OCC(=O)Nc3nc(C)c(C)s3)c1)O2	0.075 µM	2.62 µM	0.0199 µM	0.047 µM	0.19 µM	2.41 µM	12.8 µM	26.3 µM	3.76 µM	29.6 µM	1.85 µM	5.27 µM	0.0107 µM	0.0238 µM	21.4 nM	0.0418 µM
FC(F)(F)c1ccc(-c2nn3ncccc3c2-c2ccnc(Nc3ccc4c(c3)OCCO4)n2)cc1	10.7 µM	> 25 µM	11.6 µM	> 25 µM	21.4 µM	> 25 µM	7.23 µM	> 25 µM	9.6 µM	> 25 µM	> 20.5 µM	> 25 µM	> 25 µM	> 25 µM	4400 nM	> 17 µM
O=C(NN1C(=O)CSC1c1cccc(Cl)c1)C(O)c1ccccc1 (centres undefined)	90.4 µM	> 100 µM	> 100 µM	> 100 µM	35.9 µM	> 100 µM	> 100 µM	> 100 µM			81 µM	> 100 µM	> 100 µM	> 100 µM	59300 nM	> 100 µM
Cc1ccc(S(=O)(=O)c2nc(-c3ccccc3)oc2S(C)(=O)=O)cc1	13 µM	27.2 µM	3.4 µM	14.1 µM	14.2 µM	27.3 µM	3.01 µM	12.2 µM	7.43 µM	45 µM	3.31 µM	15 µM	13.3 µM	26.1 µM	1690 nM	3.13 µM
CN(C)N1C(=O)SCC(c2ccccc2)(c2ccccc2)C1=O		> 100 µM		> 100 µM		> 100 µM		> 100 µM		> 100 µM		> 100 µM		> 100 µM		> 100 µM
CC(=O)c1cccc(NC(=O)C(=O)c2c(O)c3ccccc3oc2=O)c1		> 100 µM				> 100 µM		> 100 µM		> 100 µM		> 100 µM		> 100 µM		> 100 µM
COc1ccc(-c2cnnn2-c2nonc2-n2cccc2)cc1OC	2.73 µM	> 100 µM			4.15 µM	> 100 µM	9.61 µM	> 100 µM	2.02 µM	5.99 µM	16.2 µM	> 100 µM	5.21 µM	> 100 µM	2980 nM	40.2 µM
COc1ccc(C2=NC(=O)NC2c2ccc(OC)cc2)cc1 (centres undefined)	4.5 µM	29.5 µM	5.34 µM	52.8 µM	11.8 µM	> 100 µM	36.3 µM	> 100 µM	4.38 µM	58.5 µM	14.8 µM	> 100 µM	15.2 µM	> 100 µM	12000 nM	51.5 µM
Cc1cc(NCc2cc(Nc3ccnc4cc(Cl)ccc34)ccc2F)nc(N2CCOCC2)n1	2.01 µM	4.59 µM	1.99 µM	4.7 µM	3.89 µM	21 µM			2.34 µM	6.97 µM	1.89 µM	5.61 µM				
CN(Cc1ccc(F)cc1)c1ccc(CO)c(Cl)c1	27.1 µM	> 76.9 µM	8.32 µM	33.8 µM	5.54 µM	> 60.1 µM	0.439 µM	1.66 µM	17.7 µM	> 64.3 µM	0.126 µM	0.278 µM	5.13 µM	> 87.6 µM	9120 nM	> 59 µM
CCOC(=O)c1ccc(NC(=O)NC2=NCCS2)cc1	0.434 µM	> 100 µM	24.6 µM	97.9 µM	0.584 µM	> 100 µM	> 100 µM	> 100 µM	0.505 µM	> 49.6 µM	3.14 µM	> 100 µM	1.75 µM	> 100 µM	429 nM	3.3 µM
Cn1c(=O)n(C)c2cc(CNCCNc3ccnc4cc(Cl)ccc34)ccc21	37.3 µM	> 100 µM	22.6 µM	52.5 µM	50.3 µM	> 100 µM	17.6 µM	33.3 µM	> 100 µM	> 100 µM	72 µM	> 100 µM	39.4 µM	> 100 µM	12600 nM	31.2 µM
O=C1c2cccnc2-c2nc(-c3cccnc3)cc3c2c1nc1ccccc13	4.16 µM	> 44.5 µM	18 µM	33.8 µM	3.97 µM	15.6 µM	10.1 µM	15.1 µM	3.12 µM	> 23.9 µM	2.02 µM	5.53 µM	1.73 µM	3.22 µM	3950 nM	11.3 µM
C=C1C(=O)O[C@H]2[C@H]1CC/C(Cn1cc(-c3ccc(N)cc3)nn1)=C\CC[C@@]1(C)O[C@@H]21	11.4 µM	26.9 µM	10.6 µM	28.9 µM	11.9 µM	28.1 µM			14.5 µM	38.2 µM	3.34 µM	13.2 µM	10.2 µM	23.8 µM	1410 nM	3.02 µM

Compound	GI50 (KM12 colon)	TGI (KM12 colon)	GI50 (SK-MEL-2 melanoma)	TGI (SK-MEL-2 melanoma)	GI50 (A549 NSCLC)	TGI (A549 NSCLC)	GI50 (UACC-257 melanoma)	TGI (UACC-257 melanoma)	GI50 (NCI/ADR-RES ovarian)	TGI (NCI/ADR-RES ovarian)	GI50 (NCI-H226 lung)	TGI (NCI-H226 lung)	GI50 (HOP-62 NSCLC)	TGI (HOP-62 NSCLC)	GI50 (RXF 393 renal)	TGI (RXF 393 renal)
O=[N+]([O-])c1cc([As](Br)c2ccc(O)c([N+](=O)[O-])c2)ccc1O		4.06 µM		2.59 µM		7.02 µM		3.33 µM		8.81 µM		3.21 µM		4.87 µM		3.22 µM
COc1ccc(Nc2nc(Nc3cc(C)[nH]n3)c3cc(OC)c(OC)cc3n2)cc1	0.61 µM	2.09 µM	1.77 µM	3.56 µM											1490 nM	2.83 µM
NC(=O)c1cccnc1	> 100 µM	> 100 µM	> 100 µM	> 100 µM	> 100 µM	> 100 µM	> 100 µM	> 100 µM	> 100 µM	> 100 µM	> 100 µM	> 100 µM	> 100 µM	> 100 µM	> 100000 nM	> 100 µM
CC(C)(C)NCC(O)COc1c(Br)c(Br)c(Br)c2c1OC(C)(C)C2 (centres undefined)	1.82 µM	3.4 µM	1.6 µM	3.23 µM	2.06 µM	3.84 µM	1.99 µM	3.91 µM					1.89 µM	3.7 µM	2140 nM	3.83 µM
C=C1C(=O)O[C@H]2[C@H]1CC/C(COC(=O)NCc1ccc(Cn3c(=O)sn(CCCCC)c3=O)cc1)=C\CC[C@@]1(C)O[C@@H]21	2.23 µM	4.94 µM	2.41 µM	5.46 µM	8.82 µM	22.8 µM	1.57 µM	3.03 µM	14.4 µM	46.5 µM	10.7 µM	27.6 µM	9.53 µM	22.6 µM		
CCCCCCCCCc1ccc(OCCOCCOCCOCCOCCOCCOCCOCCOCCO)cc1	0.598 µM	4.02 µM	0.876 µM	1.96 µM	0.414 µM	3.69 µM	0.0567 µM	0.812 µM	0.268 µM	3.94 µM	0.561 µM	1.77 µM	0.412 µM	1.05 µM	1030 nM	3.37 µM
CC(=O)c1ccc2c(c1)N(CCCN1CCN(CCO)CC1)c1ccccc1S2	1.97 µM	4.04 µM	2.11 µM	6.02 µM	3.3 µM	11.5 µM	1.85 µM	3.51 µM	3.05 µM	12.9 µM	7.14 µM	27.9 µM	1.99 µM	4.77 µM	2090 nM	5.95 µM
CCOC(=O)c1sc(-c2ccc(OS(=O)(=O)C[C@]34CCC(CC3=O)C4(C)C)c(C=O)c2)nc1C	1.3 µM	3.54 µM	1.13 µM	2.69 µM	1.25 µM	> 50 µM	1.26 µM	3.66 µM			0.943 µM	2.72 µM	1.21 µM	3.27 µM	943 nM	2.75 µM
C=C(CN1CCc2c([nH]c3ccccc23)C1)c1ccc(C(=O)Nc2ccccc2N)cc1	3.42 µM	12.6 µM	4.54 µM	22 µM	4.85 µM	32 µM	3.2 µM	11.6 µM	1.51 µM	17.1 µM	1.32 µM	10.1 µM	4.08 µM	20.8 µM	4270 nM	12.8 µM
CC(=O)/C=C/c1ccc(Nc2c3ccccc3nc3occ(Cl)c23)cc1	> 100 µM	> 100 µM	42.6 µM	> 100 µM	4.04 µM	32.5 µM	1.24 µM	5.59 µM	2.56 µM	5.88 µM	4.87 µM	21.7 µM	19.5 µM	61.3 µM	497 nM	7.15 µM
CCN1[C@@H](C(=O)NC23CCC(C(=O)O)(CC2)CC3)[C@H](c2cccc(Cl)c2F)[C@]2(C(=O)Nc3cc(Cl)ccc32)C12CCCCC2	3.34 µM	12.7 µM	2.02 µM	5.18 µM	0.177 µM	7.03 µM	0.228 µM	1.86 µM	5.65 µM	42.5 µM			3.19 µM	13.6 µM	1990 nM	5.69 µM
COc1cc(C2=NN(C(C)=O)C(c3cc(OC)c(OC)c(OC)c3)C2)ccc1O (centres undefined)	0.32 µM	> 100 µM		> 100 µM	0.579 µM	> 100 µM	> 93.6 µM	> 100 µM	0.283 µM	> 100 µM	23.6 µM	> 100 µM	0.571 µM	> 100 µM		
CO[C@H]1/C=C/O[C@@]2(C)Oc3c(C)c(O)c4c(O)c(c(/C=N/N5CCN(C)CC5)c(O)c4c3C2=O)NC(=O)/C(C)=C\C=C\[C@H](C)[C@H](O)[C@@H](C)[C@@H](O)[C@@H](C)[C@H](OC(C)=O)[C@@H]1C		> 100 µM		> 100 µM		> 100 µM		> 100 µM		> 100 µM				> 100 µM		> 100 µM
C=C1C(=O)OC2C1CCC(C)C1(O)C=CC(=O)C21C (centres undefined)		> 10 µM		> 10 µM		> 10 µM				> 10 µM		> 10 µM		> 10 µM		> 10 µM
COc1ccc(C(=O)c2sc3nc(-c4ccccc4OC)ccc3c2N)cc1OC	9.67 µM	> 100 µM			5.85 µM	> 100 µM	6.05 µM	> 100 µM	5.05 µM	> 100 µM	5.13 µM	> 100 µM	18.7 µM	> 100 µM	3420 nM	70 µM
CC(/C=C/C(O)=C1/C(=O)CNC1=O)=C\[C@@H](C)[C@H]1O[C@@]2(C)O[C@H](C(=O)[C@@H]3O[C@@]32C)[C@@H]1C		36.4 µM		50.1 µM				35.6 µM		63.7 µM		54.4 µM		43.1 µM		25.3 µM
